Source: patent US5665882A, “Pyridyl ethylation of lactams” (Merck & Co., Inc., priority 1996, dated 1997)

Tested on: ADP-stimulated platelets
Assay: ADP-stimulated platelet aggregation assay (gel-filtered human platelets)
Assay type: cell-based
Conditions: inhibition of ADP-stimulated platelet aggregation by 50% relative to control; gel-filtered human platelets 2×10^8 per ml, fibrinogen 100 ug/ml, Ca^2+ 1 mM, 10 mM ADP, 37° C.
Description: The activity of these fibrinogen receptor antagonists is illustrated below. One test used to evaluate fibrinogen receptor antagonist activity is based on evaluation of inhibition of ADP-stimulated platelets. Aggregation requires that fibrinogen bind to and occupy the platelet fibrinogen receptor site. Inhibitors of fibrinogen binding inhibit aggregation. In the ADP-stimulated platelet aggregation assay used to determine inhibition associated with these fibrinogen receptor antagonists, human platelets are isolated from fresh blood, collected into acid citrate/dextrose by differential centrifugation followed by gel filtration on Sepharose 2B in divalent ion-free Tyrode's buffer (pH 7.4) containing 2% bovine serum albumin.
Platelet aggregation is measured at 37° C. in a Chronolog aggregometer. The reaction mixture contains gel-filtered human platelets (2×10^8 per ml), fibrinogen (100 micrograms per ml (ug/ml)), Ca^2+ (1 mM), and the fibrinogen receptor antagonists tested. The aggregation is initiated by adding 10 mM ADP 1 minute after the other components are added. The reaction is then allowed to proceed for at least 2 minutes. The extent of inhibition of aggregation is expressed as the percentage of the rate of aggregation observed in the absence of inhibitor. The IC50 is the dose of a particular compound inhibiting aggregation by 50% relative to a control lacking the compound. […]

IC50: 100 µM
Compound: C[C@H](CC(=O)O)NC(=O)CN1CCC[C@@H](CCC2CCNCC2)C1=O
